# Experimental data as given in patent publication US9963442B2, “Pyridones as herbicides” (E I DU PONT DE NEMOURS AND COMPANY, priority 2014, dated 2018).
# Legend:
# Format in all cases: in vivo
# [1] = system: blackgrass (Alopecurus myosuroides); assay: Test A postemergence application; settings: approx. 10 days
# Outline: (§1)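 Visual injury score, 0–100 scale (100 = complete control), versus untreated plants after ~10 days greenhouse. Pre: directed soil spray on seeded loam/sand. Post: 2–10 cm plants, 1–2 leaves. Solvent/surfactant formulation.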
# [2] = system: galium (catchweed bedstraw, Galium aparine); assay: Test A postemergence application; settings: approx. 10 days
# Outline: as §1
# [3] = system: barnyardgrass (Echinochloa crus-galli); assay: Test A postemergence application; settings: approx. 10 days
# Outline: as §1
# [4] = system: wheat (Triticum aestivum); assay: Test A postemergence application; settings: approx. 10 days
# Outline: as §1
# kochia (Kochia scoparia) = assay: Test A postemergence application; settings: approx. 10 days
# Outline: as §1
# [5] = system: pigweed (Amaranthus retroflexus); assay: Test A postemergence application; settings: approx. 10 days
# Outline: as §1
# [6] = system: ragweed (common ragweed, Ambrosia elatior); assay: Test A postemergence application; settings: approx. 10 days
# Outline: as §1
# [7] = system: Italian ryegrass (Lolium multiflorum); assay: Test A postemergence application; settings: approx. 10 days
# Outline: as §1
# [8] = system: giant foxtail (Setaria faberii); assay: Test A postemergence application; settings: approx. 10 days
# Outline: as §1
# corn (Zea mays) [9] = assay: Test A postemergence application; settings: approx. 10 days
# Outline: as §1
# [10] = system: blackgrass (Alopecurus myosuroides); assay: Test C preemergence; settings: scale 0 to 100, 0 is no effect, 100 is complete control
# From the text: (§2) Seeds of plant species selected from blackgrass (Alopecurus myosuroides), Italian ryegrass (Lolium multiflorum), winter wheat (Triticum aestivum), galium (catchweed bedstraw, Galium aparine), corn (Zea mays), large (Lg) crabgrass (Digitaria sanguinalis), giant foxtail (Setaria faberii), johnsongrass (Sorghum halepense), lambsquarters (Chenopodium album), morningglory (Ipomoea coccinea), yellow nutsedge (Cyperus esculentus), pigweed (Amaranthus retroflexus), ragweed (common ragweed, Ambrosia elatior), soybean (Glycine max), barnyardgrass (Echinochloa crus-galli), oilseed rape (Brassica napus), waterhemp (common waterhemp, Amaranthus rudis), and velvetleaf (Abutilon theophrasti) were planted into a blend of loam soil and sand and treated preemergence with test chemicals formulated in a non-phytotoxic solvent mixture which included a surfactant. At the same time, plants selected from these crop and weed species and also chickweed (common chickweed, Stellaria media), kochia (Kochia scoparia), and wild oat (Avena fatua), were planted in pots containing Sunshine Redi-Earth® planting medium comprising spaghnum peat moss, vermiculite, starter nutrients and dolomitic limestone and treated with postemergence applications of test chemicals formulated in the same manner. Plants ranged in height from 2 to 18 cm (1- to 4-leaf stage) for postemergence treatments. Treated plants and controls were maintained in a greenhouse for 13 to 15 days, after which time all species were compared to controls and visually evaluated. Plant response ratings, summarized in Table C, are based on a scale of 0 to 100 where 0 is no effect and 100 is complete control. A dash (-) response means no test result.
# [11] = system: waterhemp (common waterhemp, Amaranthus rudis); assay: Test C preemergence; settings: scale 0 to 100, 0 is no effect, 100 is complete control
# From the text: as §2
# [12] = system: oilseed rape (Brassica napus); assay: Test C preemergence; settings: scale 0 to 100, 0 is no effect, 100 is complete control
# From the text: as §2
# soybean (Glycine max) = assay: Test C preemergence; settings: scale 0 to 100, 0 is no effect, 100 is complete control
# From the text: as §2
# [13] = system: johnsongrass (Sorghum halepense); assay: Test C preemergence; settings: scale 0 to 100, 0 is no effect, 100 is complete control
# From the text: as §2
# [14] = system: lambsquarters (Chenopodium album); assay: Test C preemergence; settings: scale 0 to 100, 0 is no effect, 100 is complete control
# From the text: as §2
# [15] = system: yellow nutsedge (Cyperus esculentus); assay: Test C preemergence; settings: scale 0 to 100, 0 is no effect, 100 is complete control
# From the text: as §2
# [16] = system: pigweed (Amaranthus retroflexus); assay: Test C preemergence; settings: scale 0 to 100, 0 is no effect, 100 is complete control
# From the text: as §2
# [17] = system: morningglory (Ipomoea coccinea); assay: Test C preemergence; settings: scale 0 to 100, 0 is no effect, 100 is complete control
# From the text: as §2
# [18] = system: ragweed (common ragweed, Ambrosia elatior); assay: Test C preemergence; settings: scale 0 to 100, 0 is no effect, 100 is complete control
# From the text: as §2
# [19] = system: Italian ryegrass (Lolium multiflorum); assay: Test C preemergence; settings: scale 0 to 100, 0 is no effect, 100 is complete control
# From the text: as §2
# corn (Zea mays) [20] = assay: Test C preemergence; settings: scale 0 to 100, 0 is no effect, 100 is complete control
# From the text: as §2
smiles,measurement,setting,value
"O=c1cccc(Oc2ncc(Cl)cn2)n1-c1ccc(Cl)cc1 [Compound 1, 1-(4-chlorophenyl)-6-[(5-chloro-2-pyrimidinyl)oxy]-2(1H)-pyridinone]","Plant response rating (0 to 100 scale, 0 no effect, 100 complete control), Blackgrass",[1]; 125 g ai/ha,20
same,"Plant response rating (0 to 100 scale, 0 no effect, 100 complete control), Blackgrass",[1]; 500 g ai/ha,90
same,"Plant response rating (0 to 100 scale, 0 no effect, 100 complete control), Galium",[2]; 125 g ai/ha,50
same,"Plant response rating (0 to 100 scale, 0 no effect, 100 complete control), Galium",[2]; 500 g ai/ha,100
same,"Plant response rating (0 to 100 scale, 0 no effect, 100 complete control), Barnyardgrass",[3]; 125 g ai/ha,20
same,"Plant response rating (0 to 100 scale, 0 no effect, 100 complete control), Barnyardgrass",[3]; 500 g ai/ha,100
same,"Plant response rating (0 to 100 scale, 0 no effect, 100 complete control), Wheat",[4]; 125 g ai/ha,30
same,"Plant response rating (0 to 100 scale, 0 no effect, 100 complete control), Wheat",[4]; 500 g ai/ha,40
same,"Plant response rating (0 to 100 scale, 0 no effect, 100 complete control), Kochia",kochia (Kochia scoparia); 125 g ai/ha,90
same,"Plant response rating (0 to 100 scale, 0 no effect, 100 complete control), Kochia",kochia (Kochia scoparia); 500 g ai/ha,100
same,"Plant response rating (0 to 100 scale, 0 no effect, 100 complete control), Pigweed",[5]; 125 g ai/ha,100
same,"Plant response rating (0 to 100 scale, 0 no effect, 100 complete control), Pigweed",[5]; 500 g ai/ha,100
same,"Plant response rating (0 to 100 scale, 0 no effect, 100 complete control), Ragweed",[6]; 125 g ai/ha,20
same,"Plant response rating (0 to 100 scale, 0 no effect, 100 complete control), Ragweed",[6]; 500 g ai/ha,20
same,"Plant response rating (0 to 100 scale, 0 no effect, 100 complete control), Ryegrass, Italian",[7]; 125 g ai/ha,0
same,"Plant response rating (0 to 100 scale, 0 no effect, 100 complete control), Ryegrass, Italian",[7]; 500 g ai/ha,70
same,"Plant response rating (0 to 100 scale, 0 no effect, 100 complete control), Foxtail, Giant",[8]; 125 g ai/ha,70
same,"Plant response rating (0 to 100 scale, 0 no effect, 100 complete control), Foxtail, Giant",[8]; 500 g ai/ha,100
same,"Plant response rating (0 to 100 scale, 0 no effect, 100 complete control), Corn",corn (Zea mays) [9]; 125 g ai/ha,30
same,"Plant response rating (0 to 100 scale, 0 no effect, 100 complete control), Corn",corn (Zea mays) [9]; 500 g ai/ha,30
same,"Plant response rating, Blackgrass",[10]; 16 g ai/ha,0
same,"Plant response rating, Blackgrass",[10]; 31 g ai/ha,20
same,"Plant response rating, Blackgrass",[10]; 62 g ai/ha,25
same,"Plant response rating, Blackgrass",[10]; 125 g ai/ha,85
same,"Plant response rating, Waterhemp",[11]; 16 g ai/ha,20
same,"Plant response rating, Waterhemp",[11]; 31 g ai/ha,65
same,"Plant response rating, Waterhemp",[11]; 62 g ai/ha,100
same,"Plant response rating, Waterhemp",[11]; 125 g ai/ha,100
same,"Plant response rating, Oilseed Rape",[12]; 16 g ai/ha,0
same,"Plant response rating, Oilseed Rape",[12]; 31 g ai/ha,0
same,"Plant response rating, Oilseed Rape",[12]; 62 g ai/ha,10
same,"Plant response rating, Oilseed Rape",[12]; 125 g ai/ha,60
same,"Plant response rating, Soybean",soybean (Glycine max); 16 g ai/ha,0
same,"Plant response rating, Soybean",soybean (Glycine max); 31 g ai/ha,10
same,"Plant response rating, Soybean",soybean (Glycine max); 62 g ai/ha,10
same,"Plant response rating, Johnsongrass",[13]; 16 g ai/ha,0
same,"Plant response rating, Johnsongrass",[13]; 31 g ai/ha,0
same,"Plant response rating, Johnsongrass",[13]; 62 g ai/ha,5
same,"Plant response rating, Johnsongrass",[13]; 125 g ai/ha,15
same,"Plant response rating, Lambsquarters",[14]; 16 g ai/ha,30
same,"Plant response rating, Lambsquarters",[14]; 31 g ai/ha,20
same,"Plant response rating, Lambsquarters",[14]; 62 g ai/ha,45
same,"Plant response rating, Lambsquarters",[14]; 125 g ai/ha,60
same,"Plant response rating, Nutsedge, Yellow",[15]; 16 g ai/ha,0
same,"Plant response rating, Nutsedge, Yellow",[15]; 31 g ai/ha,0
same,"Plant response rating, Nutsedge, Yellow",[15]; 62 g ai/ha,0
same,"Plant response rating, Nutsedge, Yellow",[15]; 125 g ai/ha,5
same,"Plant response rating, Pigweed",[16]; 16 g ai/ha,25
same,"Plant response rating, Pigweed",[16]; 31 g ai/ha,65
same,"Plant response rating, Pigweed",[16]; 62 g ai/ha,75
same,"Plant response rating, Pigweed",[16]; 125 g ai/ha,100
same,"Plant response rating, Morningglory",[17]; 16 g ai/ha,0
same,"Plant response rating, Morningglory",[17]; 31 g ai/ha,0
same,"Plant response rating, Morningglory",[17]; 62 g ai/ha,0
same,"Plant response rating, Morningglory",[17]; 125 g ai/ha,15
same,"Plant response rating, Ragweed",[18]; 16 g ai/ha,0
same,"Plant response rating, Ragweed",[18]; 31 g ai/ha,0
same,"Plant response rating, Ragweed",[18]; 62 g ai/ha,10
same,"Plant response rating, Ragweed",[18]; 125 g ai/ha,0
same,"Plant response rating, Ryegrass, Italian",[19]; 16 g ai/ha,0
same,"Plant response rating, Ryegrass, Italian",[19]; 31 g ai/ha,0
same,"Plant response rating, Ryegrass, Italian",[19]; 62 g ai/ha,5
same,"Plant response rating, Ryegrass, Italian",[19]; 125 g ai/ha,60
same,"Plant response rating, Corn",corn (Zea mays) [20]; 16 g ai/ha,0
same,"Plant response rating, Corn",corn (Zea mays) [20]; 31 g ai/ha,0
same,"Plant response rating, Corn",corn (Zea mays) [20]; 62 g ai/ha,0
same,"Plant response rating, Corn",corn (Zea mays) [20]; 125 g ai/ha,0
